Data set [1] has as its target T1, wild type AXL (wtAXL) receptor tyrosine kinase (Homo sapiens, UniProt P30530).
T1 construct: WtAXL cDNA was cloned into vector pLXSN(ESK) and transfected into Phoenix E packaging cells; expressed in transfected cells; host or cells: NIH3T3 N7 mouse fibroblasts, retrovirally infected (clone 22)
T1 sequence (P30530 26-894): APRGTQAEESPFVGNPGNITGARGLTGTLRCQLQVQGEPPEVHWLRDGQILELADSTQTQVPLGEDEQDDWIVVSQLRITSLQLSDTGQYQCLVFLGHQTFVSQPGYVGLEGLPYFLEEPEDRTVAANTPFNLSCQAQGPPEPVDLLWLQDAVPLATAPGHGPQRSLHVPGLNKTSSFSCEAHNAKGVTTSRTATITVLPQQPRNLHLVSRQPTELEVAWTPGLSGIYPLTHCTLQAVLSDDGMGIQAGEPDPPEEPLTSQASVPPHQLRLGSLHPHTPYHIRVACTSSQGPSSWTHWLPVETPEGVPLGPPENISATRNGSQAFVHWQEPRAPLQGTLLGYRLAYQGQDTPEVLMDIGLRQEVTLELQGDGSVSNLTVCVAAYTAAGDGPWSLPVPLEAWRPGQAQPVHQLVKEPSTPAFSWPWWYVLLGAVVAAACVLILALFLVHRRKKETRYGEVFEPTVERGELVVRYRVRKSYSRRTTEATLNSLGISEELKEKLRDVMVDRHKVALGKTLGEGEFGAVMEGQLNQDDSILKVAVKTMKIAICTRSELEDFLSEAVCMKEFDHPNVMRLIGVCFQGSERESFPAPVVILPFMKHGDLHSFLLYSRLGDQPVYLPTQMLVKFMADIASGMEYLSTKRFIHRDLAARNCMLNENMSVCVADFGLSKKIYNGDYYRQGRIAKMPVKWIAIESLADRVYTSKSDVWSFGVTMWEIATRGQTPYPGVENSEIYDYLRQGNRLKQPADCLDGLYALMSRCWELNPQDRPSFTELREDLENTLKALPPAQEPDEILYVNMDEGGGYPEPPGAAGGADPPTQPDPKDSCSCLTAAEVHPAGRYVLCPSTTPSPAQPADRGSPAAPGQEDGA
The experiment in a line: NIH-3T3-AXL cellular tyrosine kinase assay (inhibition of AXL phosphorylation). It counts as cell-based. To be noted: AXL phosphorylation in NIH-3T3-AXL (clone 22) cells, serum-depleted, 2 h with compound, immunoprecipitation / anti-phosphotyrosine blot. As to the method:
3) Inhibitory Activity of Compounds on Axl Phosphorylation in NIH-3T3-AXL Cellular Tyrosine Kinase Assay
The viral supernatant was collected and used to infect target cells NIH3T3 N7. Monoclonal NIH3T3-AXL cell lines stably expressing wtAXL were generated by selecting retrovirally infected cells in medium containing puromycin (2 μg/ml) and subsequent clonal separation.
NIH-3T3-AXL Cellular Kinase Assay
Serial dilutions of compounds were added, and the cells were further incubated or 2 h. […] The clarified cell lysate (10 min at 13000 rpm at 4° C.) were used for immunoprecipitation. Equal amounts of protein were mixed with 2 μg anti-AXL polyclonal antibody (homemade) and 20 μl Protein A sepharose beads, and rotated for 6 hr at 4° C. After immunoprecipitation, the beads were washed three times with 1×HNTG (50 mM HEPES (pH 7.5), 150 mM NaCl, 10% Glycerol, 0.2% Triton X-100). The final pellet was suspended in 20 μl 2× Laemmli buffer, and boiled for 5 min at 100° C. […] The membrane was then incubated with anti-phosphotyrosine antibody (4G10) overnight at 4° C. followed by washing with 1×TBST buffer three times. After incubating membrane with HRP-conjugated anti-mouse secondary antibody for 1 hour at room temperature followed by washing with 1×TBST buffer three times, the proteins were visualized by ECL.

A value given as a limit tells only on which side of the number the result lay.

A word on the IC50: it is the concentration needed to halve the response being measured. Usually melting point stands for the temperature, or range, at which the solid turns liquid.

`COc1cc2nccc(Oc3ccc(NS(=O)(=O)c4ccc(-c5ccccc5)s4)c(F)c3)c2cc1OC` [Example A36, 5-Phenyl-thiophene-2-sulfonic acid [4-(6,7-dimethoxy-quinolin-4-yloxy)-2-fluoro-phenyl]-amide] gave a melting point of 186 to 188 °C. In addition, in data set [1], the IC50 amounted to 2800 nM.

`COc1cc2nccc(Oc3ccc(NS(=O)(=O)c4ccc(OC)c5ccccc45)cc3C)c2cc1OC` [Example A130, 4-Methoxy-naphthalene-1-sulfonic acid [4-(6,7-dimethoxy-quinolin-4-yloxy)-3-methyl-phenyl]-amide] returned a melting point of 233 to 235 °C. In data set [1], the IC50 is greater than 10000 nM.

Regarding `COc1cc2c(Oc3ccc(NS(=O)(=O)c4ccccc4C#N)cc3F)ccnc2cc1OCCCN1CCCC(C)C1` (stereo not drawn) [Example D31, 2-Cyano-N-(3-fluoro-4-{6-methoxy-7-[3-(3-methyl-piperidin-1-yl)-propoxy]-quinolin-4-yloxy}-phenyl)-benzenesulfonamide], the melting point was in the range of 131 to 132 °C. The IC50 in data set [1] amounted to 323 nM.

As for `COc1cc2nccc(Oc3ccc(NS(=O)(=O)c4ccc(Br)cc4OC(F)(F)F)cc3OC)c2cc1OC` [Example A148, 4-Bromo-N-[4-(6,7-dimethoxy-quinolin-4-yloxy)-3-methoxy-phenyl]-2-trifluoromethoxy-benzenesulfonamide], the melting point lay within 176 to 177 °C. Besides, in data set [1], the IC50 was greater than 10000 nM.

For the compound `COc1cc2nccc(Oc3ccc(NS(=O)(=O)c4cccc5ccccc45)c(C)c3)c2cc1OC` [Example A91, Naphthalene-1-sulfonic acid [4-(6,7-dimethoxy-quinolin-4-yloxy)-2-methyl-phenyl]-amide], the melting point is 233 to 235 °C. In addition, the concentration for half-maximal inhibition (IC50) in data set [1] is greater than 10000 nM.

Take `COc1cc2nccc(Oc3ccc(NS(=O)(=O)c4ccc(OC)c5ccccc45)cc3F)c2cc1OC` [Example A135, 4-Methoxy-naphthalene-1-sulfonic acid [4-(6,7-dimethoxy-quinolin-4-yloxy)-3-fluoro-phenyl]-amide]: the melting point was 145 to 147 °C. In addition, the IC50 in data set [1] is 820 nM.

In the case of `COc1cc2nccc(Oc3ccc(NS(=O)(=O)c4ccc(OC)c5ccccc45)c(F)c3)c2cc1OC` [Example A63, 4-Methoxy-naphthalene-1-sulfonic acid [4-(6,7-dimethoxy-quinolin-4-yloxy)-2-fluoro-phenyl]-amide], the melting point lay within 226 to 227 °C. The IC50 in data set [1] was greater than 1000 nM.

Take `Cc1cc(Oc2ccc(NS(=O)(=O)c3cc(F)cc(F)c3)cc2)c2cc(F)ccc2n1` [Example B13, 3,5-Difluoro-N-[4-(6-fluoro-2-methyl-quinolin-4-yloxy)-phenyl]-benzenesulfonamid]: the melting point was in the range of 194 to 195 °C. In addition, in data set [1], the IC50 is less than 1000 nM.

For the compound `COc1cc2nccc(Oc3ccc(NS(=O)(=O)c4cccc(C#N)c4)c(F)c3)c2cc1OC` [Example A1, 3-Cyano-N-[4-(6,7-dimethoxy-quinolin-4-yloxy)-2-fluoro-phenyl]-benzenesulfonamide], the melting point lay in the range of 223 to 224 °C. For the same compound, the IC50 in data set [1] worked out at 4500 nM.

`COc1cc2c(Oc3ccc(NS(=O)(=O)c4ccccc4Br)cc3F)ccnc2cc1OCCN1CCOCC1` [Example D26, 2-Bromo-N-{3-fluoro-4-[6-methoxy-7-(2-morpholin-4-yl-ethoxy)-quinolin-4-yloxy]-phenyl}-benzenesulfonamide] displayed a melting point of 175 to 177 °C. In data set [1], the half-maximal inhibitory concentration (IC50) was 150 nM.

`Cc1cc(Oc2ccc(NS(=O)(=O)c3ccc(F)cc3F)cc2)c2cc(F)ccc2n1` [Example B12, 2,4-Difluoro-N-[4-(6-fluoro-2-methyl-quinolin-4-yloxy)-phenyl]-benzenesulfonamide] had a melting point of 179 to 180 °C. In addition, in data set [1], the IC50 was greater than 10000 nM.

As to `COc1cc2c(Oc3ccc(NS(=O)(=O)c4cccc(-c5ccccc5)c4)c(F)c3)ccnc2cc1OCc1ccccc1` [Example D01, Biphenyl-3-sulfonic acid [4-(7-benzyloxy-6-methoxy-quinolin-4-yloxy)-2-fluoro-phenyl]-amide], the melting point lay within 228 to 229 °C. The IC50 in data set [1] was greater than 10000 nM.

As to `COc1cc2nccc(Oc3ccc(NS(=O)(=O)c4ccc(Cl)cc4F)c(F)c3)c2cc1OC` [Example A13, 4-Chloro-N-[4-(6,7-dimethoxy-quinolin-4-yloxy)-2-fluoro-phenyl]-2-fluoro-benzenesulfonamide], the melting point lay within 218 to 219 °C. The half-maximal inhibitory concentration (IC50) in data set [1] turned out to be 2900 nM.

Compound `COc1cc2nccc(Oc3ccc(NS(=O)(=O)c4cccc5ccccc45)cc3OC)c2cc1OC` [Example A140, Naphthalene-1-sulfonic acid [4-(6,7-dimethoxy-quinolin-4-yloxy)-3-methoxy-phenyl]-amide] registered a melting point of 124 to 126 °C. In addition, in data set [1], the IC50 is greater than 10000 nM.

On to `COc1cc2nccc(Oc3ccc(NS(=O)(=O)c4cccc(Oc5ccccc5)c4)c(C)c3)c2cc1OC` [Example A90, N-[4-(6,7-Dimethoxy-quinolin-4-yloxy)-2-methyl-phenyl]-3-phenoxy-benzenesulfonamide], for which the melting point fell in the range of 169 to 170 °C. The IC50 in data set [1] is greater than 10000 nM.

The compound `COc1cc2nccc(Oc3ccc(NS(=O)(=O)c4ccc(Br)c(Cl)c4)cc3OC)c2cc1OC` [Example A122, 4-Bromo-3-chloro-N-[4-(6,7-dimethoxy-quinolin-4-yloxy)-3-methoxy-phenyl]-benzenesulfonamide] showed a melting point of 110 to 113 °C. Besides, the half-inhibitory concentration (IC50) in data set [1] is greater than 10000 nM.

`COc1cc(S(=O)(=O)Nc2ccc(Oc3ccnc4cc(OC)c(OC)cc34)cc2F)ccc1F` [Example A61, N-[4-(6,7-Dimethoxy-quinolin-4-yloxy)-2-fluoro-phenyl]-4-fluoro-3-methoxy-benzenesulfonamide] displayed a melting point of 214 to 216 °C. The IC50 in data set [1] was found to be 700 nM.

As for `COc1cc2nccc(Oc3ccc(NS(=O)(=O)c4cc(Cl)cc(Cl)c4O)cc3C)c2cc1OC` [Example A79, 3,5-Dichloro-N-[4-(6,7-dimethoxy-quinolin-4-yloxy)-3-methyl-phenyl]-2-hydroxy-benzenesulfonamide], the melting point fell in the range of 113 to 117 °C. Further, in data set [1], the IC50 turned out to be 480 nM.

With `COc1cc2nccc(Oc3ccc(NS(=O)(=O)c4cccc(Oc5ccccc5)c4)cc3)c2cc1OC` [Example A115, N-[4-(6,7-Dimethoxy-quinolin-4-yloxy)-phenyl]-3-phenoxy-benzenesulfonamide], the melting point is 172 to 174 °C. In addition, the IC50 in data set [1] turned out to be 1260 nM.

The compound `COc1cc2nccc(Oc3ccc(NS(=O)(=O)c4cccc(OC(F)F)c4)c(F)c3)c2cc1OC` [Example A15, 3-Difluoromethoxy-N-[4-(6,7-dimethoxy-quinolin-4-yloxy)-2-fluoro-phenyl]-benzenesulfonamide] gave a melting point of 238 to 239 °C. The IC50 in data set [1] worked out at 2260 nM.

In turn, `COc1cc2nccc(Oc3ccc(NS(=O)(=O)c4ccc(Br)c(Cl)c4)cc3)c2cc1OC` [Example A117, 4-Bromo-3-chloro-N-[4-(6,7-dimethoxy-quinolin-4-yloxy)-phenyl]-benzenesulfonamide] yielded a melting point of 232 to 234 °C. Also, the half-maximal inhibitory concentration (IC50) in data set [1] was greater than 10000 nM.

Values taken from patent publication US9206130B2, “Quinoline derivatives as AXL kinase inhibitors” (Max-Planck-Gesellschaft zur Förderung der Wissenschaften …, priority 2008, dated 2015).
